The values below come from ChEMBL document CHEMBL1201862, “PubChem BioAssay data set” (2004).

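Interpolation was linear, between the two tested concentrations surrounding the appropriate level; five concentrations were tested over 48 hours in 96-well plates. Abbreviation: GI50, concentration required for 50% inhibition of growth.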 The source made the active and inactive calls. No stated cut-off is given here; in the data, active = GI50 up to about 1.1 µM and inactive = higher.

Test systems include SK-MEL-5; HL-60; SF-539; PC-3; NCI/ADR-RES; K562; UO-31; SR; U-251; LOX IMVI; UACC-257; SK-MEL-28; RPMI-8226; IGROV-1; NCI-H23; CCRF-CEM; HCT-15; CAKI-1; OVCAR-4; 786-0.
Assay in all cases: NCI tumour cell line growth inhibition, 48 h

Regarding `Oc1ccccc1/C=N/c1ccc(-c2nc3ccccc3s2)cc1`, the GI50 was 15.1 µM (inactive) in the experiment with SK-MEL-5; 11.8 µM (inactive) in the experiment on HL-60; 30.8 µM (inactive) with SF-539; 18.7 µM (inactive) in the experiment on PC-3; 25.6 µM (inactive) with NCI/ADR-RES; 24.6 µM (inactive) in the experiment on K562. The GI50 in the experiment with UO-31 was 28.5 µM (inactive); in the experiment with SR, 33.7 µM (inactive); in the experiment on U-251, 30.9 µM (inactive); with LOX IMVI, 26.4 µM (inactive); in the experiment with UACC-257 it was 24 µM (inactive); in the experiment with SK-MEL-28, 41.7 µM (inactive). Besides, the GI50 in the experiment on RPMI-8226 is 23.2 µM (inactive); with IGROV-1, 28.2 µM (inactive); in the experiment with NCI-H23, 31.8 µM (inactive); with CCRF-CEM, 6.89 µM (inactive); in the experiment on HCT-15, 24.4 µM; in the experiment on CAKI-1 it was 28.2 µM (inactive). Also, the values for the GI50 with OVCAR-4 and in the experiment on 786-0 were 30.2 µM (inactive) and 29.2 µM (inactive), respectively.
On to `Brc1ccc2c([C@H]3CN[C@@H](c4c[nH]c5cc(Br)ccc45)CN3)c[nH]c2c1`, for which the GI50 is 4.91 µM (inactive) with SK-MEL-5; 1.95 µM (inactive) in the experiment on HL-60; 2.89 µM (inactive) with SF-539; 3.9 µM (inactive) in the experiment on PC-3; 4.9 µM (inactive) with NCI/ADR-RES; 1.74 µM (inactive) with K562. Further, the GI50 in the experiment with UO-31 is 4.16 µM (inactive); with SR it was 2.27 µM (inactive); with U-251 it was 2 µM (inactive); with LOX IMVI it was 1.83 µM (inactive); in the experiment on UACC-257, 14.9 µM (inactive); with SK-MEL-28, 14.2 µM (inactive). In addition, the GI50 in the experiment on RPMI-8226 is 2.48 µM (inactive); with IGROV-1, 3.19 µM (inactive); in the experiment on NCI-H23, 2.54 µM (inactive); in the experiment on CCRF-CEM it was 2.84 µM (inactive); with HCT-15, 3.83 µM; with CAKI-1, 2.94 µM (inactive). The GI50 in the experiment with OVCAR-4 is 1.9 µM (inactive); in the experiment on 786-0, 1.65 µM (inactive).
On to `CN(C)c1ccc(C=c2c3ccccc3n3c2c2ccccc2[n+]3C)cc1`, for which the GI50 was 0.112 µM (active) in the experiment on SK-MEL-5; 0.051 µM (active) in the experiment on HL-60; 0.513 µM (active) in the experiment with SF-539; 0.353 µM (active) in the experiment with PC-3; 3.93 µM (inactive) in the experiment on NCI/ADR-RES; 0.134 µM (active) in the experiment with K562. Also, the GI50 in the experiment with UO-31 is 0.836 µM (active); in the experiment on SR, 0.199 µM (active); with U-251 it was 0.196 µM (active); in the experiment on LOX IMVI, 0.597 µM (active); in the experiment with UACC-257, 0.33 µM (active); in the experiment on SK-MEL-28, 0.521 µM (active). The GI50 in the experiment with RPMI-8226 was 0.138 µM (active); with IGROV-1, 0.82 µM (active); in the experiment on NCI-H23, 1.01 µM (active); in the experiment with CCRF-CEM, 0.15 µM (active); in the experiment with HCT-15, 0.456 µM; in the experiment on CAKI-1, 1.08 µM (active). In addition, the figures for the GI50 in the experiment on OVCAR-4 and with 786-0 were 1.18 µM (inactive) and 0.301 µM (active), respectively.
Regarding `C=C1CC(Cn2cc(C)c(=O)[nH]c2=O)(c2ccc(-c3ccccc3)cc2)OC1=O` (stereo not given), the GI50 is 1.07 µM (active) in the experiment on SK-MEL-5; 0.415 µM (active) in the experiment with HL-60; 2.07 µM (inactive) in the experiment on SF-539; 2.01 µM (inactive) in the experiment with PC-3; 1.33 µM (inactive) in the experiment on NCI/ADR-RES; 0.296 µM (active) in the experiment on K562. Further, the GI50 with UO-31 is 5.32 µM (inactive); in the experiment with SR, 0.82 µM (active); in the experiment on U-251, 10.6 µM (inactive); in the experiment on LOX IMVI it was 0.889 µM (active); in the experiment with UACC-257, 1.44 µM (inactive); with SK-MEL-28 it was 1.78 µM (inactive). For the same molecule, the GI50 in the experiment with RPMI-8226 is 0.385 µM (active); in the experiment with IGROV-1, 1.82 µM (inactive); in the experiment on NCI-H23 it was 1.74 µM (inactive); with CCRF-CEM, 0.379 µM (active); with HCT-15, 1.69 µM; in the experiment on CAKI-1 it was 1.55 µM (inactive). The values for the GI50 in the experiment on OVCAR-4 and in the experiment with 786-0 were 2.49 µM (inactive) and 0.817 µM (active), respectively.
As for `COc1ccccc1CNCc1nc2ccccc2[nH]1`, the GI50 in the experiment with SK-MEL-5 is 48.5 µM (inactive); in the experiment on HL-60, 80.5 µM (inactive); with SF-539, > 100 µM (inactive); in the experiment with PC-3 it was > 100 µM (inactive); in the experiment with NCI/ADR-RES, > 100 µM (inactive); in the experiment on K562, > 100 µM (inactive). Also, the GI50 with UO-31, with SR, in the experiment with U-251, with LOX IMVI, in the experiment with UACC-257 and in the experiment with SK-MEL-28 was > 100 µM (inactive) in each case. The GI50 in the experiment on RPMI-8226 is > 100 µM (inactive); in the experiment with IGROV-1, > 100 µM (inactive); with NCI-H23, > 100 µM (inactive); in the experiment on CCRF-CEM it was > 100 µM (inactive); in the experiment on HCT-15, > 100 µM; in the experiment with CAKI-1, > 100 µM (inactive). The GI50 in the experiment on OVCAR-4 and in the experiment on 786-0 was > 100 µM (inactive) throughout.
Regarding `CCOCC(=O)N[C@H]1CCc2cc(OC(=O)COCC)c(OC)c(OC)c2-c2ccc(SC)c(=O)cc21`, the GI50 in the experiment on SK-MEL-5 is 0.00478 µM (active); in the experiment with HL-60, 0.00473 µM (active); in the experiment with SF-539 it was 0.0172 µM (active); in the experiment on PC-3 it was 0.0224 µM (active); in the experiment with NCI/ADR-RES it was 1.87 µM (inactive); in the experiment with K562 it was 0.0126 µM (active). The GI50 in the experiment on UO-31 is 0.914 µM (active); in the experiment on SR, 0.0159 µM (active); with U-251 it was 0.0275 µM (active); in the experiment on LOX IMVI, 0.0303 µM (active); in the experiment on UACC-257 it was 0.00902 µM (active); in the experiment with SK-MEL-28 it was 0.0143 µM (active). The GI50 is 0.0299 µM (active) with RPMI-8226; 0.0324 µM (active) in the experiment with IGROV-1; 0.0273 µM (active) with NCI-H23; 0.0231 µM (active) in the experiment with CCRF-CEM; 0.0551 µM in the experiment with HCT-15; 0.15 µM (active) with CAKI-1. Also, the GI50 is 10.5 µM (inactive) with OVCAR-4 and 0.036 µM (active) in the experiment on 786-0.
With `Cn1c2c3ccc(Cl)cc3nc-2c(Cl)c2ccccc21`, the GI50 with SK-MEL-5 was 16.4 µM (inactive); in the experiment with HL-60, 24.2 µM (inactive); in the experiment on SF-539, 19.9 µM (inactive); in the experiment on PC-3 it was 13.7 µM (inactive); with NCI/ADR-RES, 24.8 µM (inactive); in the experiment with K562 it was 6.01 µM (inactive). Besides, the GI50 in the experiment on UO-31 was 16.3 µM (inactive); in the experiment on SR, 6.15 µM (inactive); in the experiment on U-251 it was 10.9 µM (inactive); in the experiment on LOX IMVI it was 13.3 µM (inactive); with UACC-257 it was 17.5 µM (inactive); in the experiment on SK-MEL-28, 17.7 µM (inactive). The GI50 in the experiment with RPMI-8226 is 4.31 µM (inactive); in the experiment on IGROV-1 it was 16.6 µM (inactive); with NCI-H23, 13.4 µM (inactive); in the experiment on CCRF-CEM, 3.86 µM (inactive); with HCT-15 it was 14.7 µM; in the experiment with CAKI-1, 17.3 µM (inactive). The GI50 in the experiment with OVCAR-4 is 17.1 µM (inactive); in the experiment on 786-0, 15.5 µM (inactive).
Take `Cn1c(SCc2c[nH]c3ccccc23)nnc1-c1ccc(Cl)cc1Cl`: the GI50 with SK-MEL-5 was 14.5 µM (inactive); with HL-60, 10.4 µM (inactive); in the experiment on SF-539 it was 3.14 µM (inactive); in the experiment on PC-3 it was 12.1 µM (inactive); with NCI/ADR-RES it was 6.07 µM (inactive); with K562, 4.23 µM (inactive). In addition, the GI50 in the experiment with UO-31 was 18 µM (inactive); in the experiment with SR it was 4.23 µM (inactive); in the experiment with U-251, 15.1 µM (inactive); in the experiment with LOX IMVI, 5.18 µM (inactive); in the experiment on UACC-257, 19.9 µM (inactive); in the experiment on SK-MEL-28, 36.2 µM (inactive). In addition, the GI50 in the experiment on RPMI-8226 was 13.1 µM (inactive); in the experiment on IGROV-1 it was 17.4 µM (inactive); with NCI-H23, 23.8 µM (inactive); in the experiment on CCRF-CEM, 12.8 µM (inactive); in the experiment with HCT-15, 12.1 µM; in the experiment with CAKI-1 it was 20 µM (inactive). Moreover, the GI50 in the experiment on OVCAR-4 is 12.4 µM (inactive); in the experiment with 786-0 it was 24.4 µM (inactive).
Consider `O=C1CC(CC(O)[C@@H]2CCCC[C@@H]2O)CC(=O)N1c1ccccc1` (stereo not given in full), for which the GI50 with SK-MEL-5, in the experiment on HL-60, in the experiment with SF-539, in the experiment with PC-3, in the experiment on NCI/ADR-RES and in the experiment with K562 was > 100 µM (inactive) each time. For the same molecule, the GI50 in the experiment on UO-31, with SR, in the experiment with U-251, with LOX IMVI, in the experiment on UACC-257 and with SK-MEL-28 was > 100 µM (inactive) each time. Besides, the GI50 was > 100 µM (inactive) in the experiment on RPMI-8226; > 100 µM (inactive) in the experiment on IGROV-1; > 100 µM (inactive) in the experiment on NCI-H23; > 100 µM (inactive) in the experiment on CCRF-CEM; > 100 µM with HCT-15; > 100 µM (inactive) in the experiment on CAKI-1. For the same molecule, the GI50 in the experiment on OVCAR-4 and with 786-0 was > 100 µM (inactive) in each case.
On to `CN(CCCCCl)P(=O)(OCc1ccc([N+](=O)[O-])o1)OC[C@H]1O[C@@H](n2cc(F)c(=O)[nH]c2=O)C[C@@H]1O` (stereo not given in full), for which the GI50 with SK-MEL-5 is 0.849 µM (active); in the experiment on HL-60 it was 0.766 µM (active); in the experiment on SF-539, < 0.01 µM (active); in the experiment with PC-3, 4.34 µM (inactive); with NCI/ADR-RES, 0.0658 µM (active); with K562, 12.4 µM (inactive). In addition, the GI50 in the experiment with UO-31 is 0.355 µM (active); with SR it was 0.0702 µM (active); in the experiment with U-251, 1.63 µM (inactive); in the experiment with LOX IMVI, 0.07 µM (active); in the experiment on UACC-257 it was 30.8 µM (inactive); in the experiment on SK-MEL-28, 21.2 µM (inactive). Further, the GI50 was 1.27 µM (inactive) in the experiment on RPMI-8226; 1.58 µM (inactive) in the experiment on IGROV-1; 0.989 µM (active) with NCI-H23; 0.173 µM (active) in the experiment with CCRF-CEM; 21.6 µM in the experiment with HCT-15; 0.0693 µM (active) in the experiment on CAKI-1. Besides, the GI50 is 12.8 µM (inactive) with OVCAR-4 and 0.883 µM (active) with 786-0.
